# According to ChEMBL document CHEMBL1201862, “PubChem BioAssay data set” (2004):
# Activity calls are given as the source filed them.
# How the values were obtained:
# H9c2 = experiment: cells; format: functional, cell-based; settings: Rattus norvegicus, H9c2, Myocardium;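 note: confirmatory concentration-response retest of ultra-high-throughput screening hits for modulation of myocardial damage; cell death induced by hydrogen peroxide oxidative stress; compound pretreatment for 60 min then peroxide exposure for 2 h; potency is for protecting the cells against peroxide damage rather than for killing them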
# Leucine aminopeptidase = target: T1, Leucine aminopeptidase (Plasmodium falciparum 3D7, UniProt Q8IL11); experiment: P. falciparum M17LAP inhibitors, primary screen, biochemical, fluorogenic H-Leu-NHMec substrate, 1536-well (AID 1619); format: functional
# T1 sequence (Q8IL11 whole entry): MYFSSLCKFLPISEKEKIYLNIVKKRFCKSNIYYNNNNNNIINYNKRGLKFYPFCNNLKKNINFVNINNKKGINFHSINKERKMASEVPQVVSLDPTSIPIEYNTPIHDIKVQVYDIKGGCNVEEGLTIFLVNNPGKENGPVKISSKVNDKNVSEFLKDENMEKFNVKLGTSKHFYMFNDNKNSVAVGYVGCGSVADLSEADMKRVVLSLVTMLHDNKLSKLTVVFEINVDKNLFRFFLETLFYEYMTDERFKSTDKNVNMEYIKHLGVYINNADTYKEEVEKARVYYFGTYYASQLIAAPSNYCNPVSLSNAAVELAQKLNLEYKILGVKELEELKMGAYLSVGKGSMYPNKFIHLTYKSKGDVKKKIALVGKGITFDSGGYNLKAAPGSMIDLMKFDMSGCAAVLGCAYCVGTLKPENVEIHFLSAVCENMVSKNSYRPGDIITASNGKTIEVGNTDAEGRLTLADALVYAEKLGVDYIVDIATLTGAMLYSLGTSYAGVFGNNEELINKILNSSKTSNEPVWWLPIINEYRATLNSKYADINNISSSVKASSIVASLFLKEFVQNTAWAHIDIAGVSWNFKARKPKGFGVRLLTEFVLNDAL
# [1] = target: T2, RNA-binding protein pos-1 (Caenorhabditis elegans, UniProt G5EF15); experiment: disruptors of C. elegans POS-1 RNA interaction – biochemical, fluorescence polarization, dose response (AID 1964);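 note: purified POS-1 fused to maltose binding protein made in E. coli; potency of compounds blocking POS-1 binding to fluorescent RNA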
# T2 sequence (G5EF15 whole entry): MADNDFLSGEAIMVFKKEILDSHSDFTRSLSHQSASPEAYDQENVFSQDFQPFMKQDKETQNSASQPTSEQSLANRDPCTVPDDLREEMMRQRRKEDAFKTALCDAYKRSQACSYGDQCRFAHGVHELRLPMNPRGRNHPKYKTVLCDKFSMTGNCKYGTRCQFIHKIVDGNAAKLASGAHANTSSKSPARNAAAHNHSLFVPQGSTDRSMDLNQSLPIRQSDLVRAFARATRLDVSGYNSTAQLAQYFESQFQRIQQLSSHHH
# [2] = target: T3, Zinc finger protein mex-5 (Caenorhabditis elegans, UniProt Q9XUB2); experiment: potency of MEX-5 RNA-binding blockers – biochemical, C. elegans, fluorescence polarization, dose response (AID 1960)
# T3 sequence (Q9XUB2 whole entry): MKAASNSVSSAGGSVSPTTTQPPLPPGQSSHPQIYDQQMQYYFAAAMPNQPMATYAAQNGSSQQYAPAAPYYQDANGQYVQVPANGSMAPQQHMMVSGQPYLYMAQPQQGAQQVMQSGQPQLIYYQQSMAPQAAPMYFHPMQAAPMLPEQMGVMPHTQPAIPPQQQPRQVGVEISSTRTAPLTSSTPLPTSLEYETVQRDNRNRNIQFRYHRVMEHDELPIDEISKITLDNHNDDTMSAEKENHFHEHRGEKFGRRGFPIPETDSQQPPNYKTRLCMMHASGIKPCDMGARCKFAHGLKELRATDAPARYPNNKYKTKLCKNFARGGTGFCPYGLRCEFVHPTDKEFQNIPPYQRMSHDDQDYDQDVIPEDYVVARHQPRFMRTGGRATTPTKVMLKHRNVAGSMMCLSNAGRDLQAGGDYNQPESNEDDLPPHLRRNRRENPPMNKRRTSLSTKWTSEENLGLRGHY
# [3] = target: T4, Polyadenylate-binding protein 1 (Homo sapiens, UniProt P11940); experiment: MLLE binding blockers, Cy5 peptide tracer – biochemical, fluorescence polarization, Cy5-PAM2 peptide, secondary, miRNA deadenylation inhibitor project, dose response (AID 602260); format: functional; settings: read-out: IC50_Mean
# [4] = target: T4, Polyadenylate-binding protein 1; experiment: MLLE domain peptide-binding blockers, IC50 – biochemical, fluorescence polarization, FITC-PAM2 peptide, dose response (AID 602259); format: functional; settings: read-out: IC50_Mean
# [5] = viability of PTEN-deleted HCT116 cells – cell-based, HCT116 PTEN knockout, dose response (AID 1047); format: functional;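 note: HCT116 colon tumor cells with PTEN knocked out; cells exposed to compound for 60 hours before readout; potency for loss of cell viability measured by luminescence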
# [6] = viability of HCT116 lacking mutant beta-catenin – cell-based, human colon tumor, dose response (AID 1045); format: functional;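 note: HCT116 colon tumor cells with beta catenin knocked out; cells exposed to compound for 60 hours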
# [7] = target: T5, Rac GTPase-activating protein 1 (Homo sapiens, UniProt Q9H0H5); experiment: blockers of MgcRacGAP-driven Rac1 GTP hydrolysis – biochemical, ADP Hunter fluorescence, primary and confirmatory, confirmation (AID 624330); format: functional
# T5 sequence (Q9H0H5 whole entry): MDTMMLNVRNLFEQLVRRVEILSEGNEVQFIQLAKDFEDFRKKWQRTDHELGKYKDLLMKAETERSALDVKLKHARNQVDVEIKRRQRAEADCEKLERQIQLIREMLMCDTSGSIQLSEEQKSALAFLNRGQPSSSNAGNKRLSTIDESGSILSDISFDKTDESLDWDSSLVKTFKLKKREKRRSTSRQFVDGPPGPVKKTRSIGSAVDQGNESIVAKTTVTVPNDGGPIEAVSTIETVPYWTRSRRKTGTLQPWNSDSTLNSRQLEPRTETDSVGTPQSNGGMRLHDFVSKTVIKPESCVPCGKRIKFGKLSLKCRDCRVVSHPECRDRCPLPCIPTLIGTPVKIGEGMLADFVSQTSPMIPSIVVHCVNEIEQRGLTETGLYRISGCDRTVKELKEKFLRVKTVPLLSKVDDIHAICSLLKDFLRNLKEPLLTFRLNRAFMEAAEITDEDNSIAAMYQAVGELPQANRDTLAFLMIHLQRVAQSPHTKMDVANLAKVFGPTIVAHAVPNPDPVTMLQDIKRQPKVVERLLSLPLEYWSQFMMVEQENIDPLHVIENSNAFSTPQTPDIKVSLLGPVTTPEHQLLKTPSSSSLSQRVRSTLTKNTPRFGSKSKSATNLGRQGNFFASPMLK
# [8] = NIH-3T3 fibroblast cytotoxicity, dose response, cytotoxicity control, cell-based, fluorescence, Alamar Blue, secondary assay (AID 2327); format: functional;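 note: NIH-3T3 mouse fibroblasts cultured with fluconazole at 8 µg/mL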
# [9] = fluconazole-exposed Candida albicans growth modulators – fluorescence, retest, confirmation (AID 2467); format: functional, cell-based
# [10] = Luminescence Cell-Based Dose Retest to Confirm Inhibitors of Cancer Stem Cells. [Related pubchem assays (depositor defined):AID2717, AID2721]; format: functional; settings: Homo sapiens
# Cytochrome P450 3A4 = Cytochrome P450 3A4 (Homo sapiens, UniProt P08684);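 note: CYP3A4 tested as one member of a cytochrome P450 panel screen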
# [11] = Trypanosoma cruzi growth suppression in host cells – NIH3T3 host cells, beta-gal luminescence, confirmation (AID 2044); format: functional, cell-based;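 note: intracellular parasites grown in NIH/3T3 mouse fibroblasts as host cells; luminescent beta-galactosidase reporter signal from transgenic T. cruzi replicating inside host cells; inhibitors lower the luminescence signal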
# [12] = NIH3T3 cell viability loss – ATP luminescence, mouse fibroblasts, counter-screen, dose response (AID 2010); format: functional, cell-based;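 note: cells exposed to compound for about 90 hours before reading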
# [13] = system: Streptococcus sp. 'group A'; experiment: Streptococcus pyogenes SK(-)GAS viability under kanamycin – luminescence, BacTiterGlo, confirmation, counter-screen for streptokinase expression inhibitor project, dose response (AID 1900); format: functional, organism-based
# Streptokinase A = target: T6, Streptokinase A (Streptococcus pyogenes serotype M1, UniProt P10520); experiment: viability-normalized secreted streptokinase activity reduction – plasminogen activation absorbance, OD405, dose response (AID 1914); format: functional, Streptococcus pyogenes M1 GAS;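 note: secreted streptokinase activity via plasminogen activation per viability signal from cell pellet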
# T6 sequence (P10520 whole entry): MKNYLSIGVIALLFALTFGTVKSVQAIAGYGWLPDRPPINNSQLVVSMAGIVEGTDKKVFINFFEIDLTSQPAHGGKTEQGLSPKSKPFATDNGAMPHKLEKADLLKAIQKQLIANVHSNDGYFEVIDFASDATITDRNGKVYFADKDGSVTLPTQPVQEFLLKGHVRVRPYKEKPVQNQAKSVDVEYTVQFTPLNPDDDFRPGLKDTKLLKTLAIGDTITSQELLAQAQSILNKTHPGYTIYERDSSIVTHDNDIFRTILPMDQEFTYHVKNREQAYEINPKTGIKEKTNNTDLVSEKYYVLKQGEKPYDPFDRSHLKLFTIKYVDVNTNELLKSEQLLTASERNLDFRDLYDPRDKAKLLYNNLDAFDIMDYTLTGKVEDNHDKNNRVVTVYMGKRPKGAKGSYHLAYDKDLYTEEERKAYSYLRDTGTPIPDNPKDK
# Streptococcus = experiment: GAS UMAA2166 growth inhibition – luminescence, BacTiterGlo, counter-screen for streptokinase expression inhibitor project, dose response (AID 1915); format: functional, organism-based;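 note: potency for reduction of bacterial viability or growth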
# T4 sequence (P11940 whole entry, the tested form may be a part): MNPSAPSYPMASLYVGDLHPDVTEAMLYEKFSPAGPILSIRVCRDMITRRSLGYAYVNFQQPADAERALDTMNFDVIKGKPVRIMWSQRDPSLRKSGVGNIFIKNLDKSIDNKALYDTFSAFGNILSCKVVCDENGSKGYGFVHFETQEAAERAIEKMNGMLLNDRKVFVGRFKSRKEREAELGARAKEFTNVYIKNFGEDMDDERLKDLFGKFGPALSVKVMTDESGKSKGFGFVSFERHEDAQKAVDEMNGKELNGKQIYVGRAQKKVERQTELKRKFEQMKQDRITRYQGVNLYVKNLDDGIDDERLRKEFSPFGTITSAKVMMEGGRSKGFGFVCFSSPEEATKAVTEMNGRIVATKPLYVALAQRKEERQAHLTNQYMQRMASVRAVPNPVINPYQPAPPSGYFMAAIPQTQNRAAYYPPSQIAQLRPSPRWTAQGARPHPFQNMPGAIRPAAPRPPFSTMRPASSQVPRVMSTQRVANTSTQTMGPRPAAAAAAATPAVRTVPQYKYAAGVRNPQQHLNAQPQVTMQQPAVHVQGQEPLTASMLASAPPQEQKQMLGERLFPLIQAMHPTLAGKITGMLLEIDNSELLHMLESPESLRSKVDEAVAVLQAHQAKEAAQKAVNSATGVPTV
# Chain of Cytochrome P450 3A4 (P08684 whole entry): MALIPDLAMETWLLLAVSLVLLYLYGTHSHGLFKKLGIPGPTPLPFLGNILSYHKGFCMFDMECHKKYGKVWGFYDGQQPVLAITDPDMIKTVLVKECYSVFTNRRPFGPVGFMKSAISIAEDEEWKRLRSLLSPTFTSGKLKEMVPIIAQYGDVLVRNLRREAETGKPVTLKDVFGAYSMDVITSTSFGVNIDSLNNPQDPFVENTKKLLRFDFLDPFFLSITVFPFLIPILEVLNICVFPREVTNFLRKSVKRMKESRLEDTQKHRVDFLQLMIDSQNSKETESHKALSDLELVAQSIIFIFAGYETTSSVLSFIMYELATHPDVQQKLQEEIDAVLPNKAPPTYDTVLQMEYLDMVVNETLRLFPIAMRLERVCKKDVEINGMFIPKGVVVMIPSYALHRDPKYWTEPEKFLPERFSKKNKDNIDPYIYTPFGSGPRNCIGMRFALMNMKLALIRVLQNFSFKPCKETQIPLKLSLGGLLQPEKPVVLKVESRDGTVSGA
structure (smiles),measurement,setting,value
O=C(N/N=C/c1cn(-c2ccccc2)nc1-c1cccnc1)c1cccnc1,IC50,H9c2,> 79 µM (inactive)
O=C(CSc1nnc(NC2CCCCC2)s1)NN1C(=O)NC2(CCCCC2)C1=O,IC50,Leucine aminopeptidase,10.5 µM (active)
O=C(COC(=O)Cn1[nH]c(=O)c2ccccc2c1=O)Nc1c(Cl)cccc1C(F)(F)F,IC50,H9c2,> 79 µM (inactive)
Cc1noc(NS(=O)(=O)c2ccc(N/C=C\C(=O)c3ccc4c(c3)OCO4)cc2)c1C,IC50,Leucine aminopeptidase,13.9 µM (active)
CCOc1ccccc1NC(=O)Nc1ccc(OC)nc1,EC50,[1],31.6 µM (active)
same,EC50,[2],29.5 µM (active)
same,IC50,[3],> 66 µM (inactive)
same,IC50,[4],35.9 µM (inactive)
Cc1cc2cc(CNC(=O)c3ccc4c(c3)OCO4)ccc2n1C,IC50,[3],> 66 µM (inactive)
same,IC50,[4],> 66 µM (inactive)
COc1cc(C(=O)Nc2cccc(-c3nnc(-c4ccco4)o3)c2)ccc1OC(C)=O,IC50,H9c2,> 79 µM (inactive)
CCOC(=O)c1cn(-c2ccc(F)c(F)c2)c2c(F)c(F)c(F)c(F)c2c1=O,EC50,[5],19.5 µM (active)
same,EC50,[6],22.4 µM (active)
COc1ccc(Nc2nc(Nc3ccc(OC)cc3OC)nc(N3CCN(C)CC3)n2)c(OC)c1,IC50,H9c2,> 79 µM (inactive)
Cn1c(CCN2CCCCC2)nc2cc(NS(=O)(=O)c3ccc(F)cc3)ccc21,EC50,[5],51.6 µM (active)
same,EC50,[6],55.9 µM (active)
CN(C)c1cc2c3ccccc3n(C)c2cc1N,IC50,[3],> 66 µM (inactive)
same,IC50,[4],22.8 µM (inactive)
same,IC50,[7],12.7 µM (active)
CC(C)C(NC(=O)c1cccs1)C(=O)NC1=NCCS1 (stereo not given),IC50,[3],> 66 µM (inactive)
same,IC50,[4],> 66 µM (inactive)
O=c1c2ccccc2nc(CSc2[nH]cnc3ncnc2-3)n1-c1ccc(Cl)c(Cl)c1,IC50,H9c2,> 79 µM (inactive)
CC(=O)Nc1cccc(NC(=O)Cc2nc(-c3ccccc3)sc2-c2ccc(C)cc2)c1,EC50,[5],17.1 µM (active)
same,EC50,[6],16.6 µM (active)
COc1ccc(-c2cc(=O)oc3cc(OC(C)C(=O)O)ccc23)cc1 (stereo not given),IC50,Leucine aminopeptidase,43.9 µM (active)
O=C(/C=C/c1ccc(-c2ccccc2[N+](=O)[O-])o1)c1ccco1,IC50,[3],> 66 µM (inactive)
same,IC50,[4],> 66 µM (inactive)
Cc1ccc(C2(c3noc(CN4CCC(c5ccncc5)CC4)n3)CCCC2)cc1,EC50,[8],19.7 µM (active)
same,EC50,[9],> 38 µM (not active)
same,AC50,[10],0.772 µM (active)
CN(C(=O)CC(NC(=O)c1ccccc1)(c1ccccc1)c1ccccc1)c1ccccc1,EC50,[8],30.5 µM (active)
same,EC50,[9],4.72 µM (active)
same,AC50,Cytochrome P450 3A4,0.708 µM (inconclusive)
CCN(c1ccccc1)S(=O)(=O)c1ccc(Cl)c(NC(=O)CN(C)C2CCN(C)CC2)c1,EC50,[8],> 150 µM (inactive)
same,EC50,[9],3.82 µM (active)
same,EC50,[11],0.395 µM (active)
same,EC50,[12],> 60 µM (not active)
same,IC50,[7],80.2 µM (active)
Oc1cc(-c2ccccc2)nc2nc(COc3ccccc3)nn12,IC50,Leucine aminopeptidase,7.61 µM (active)
Cc1ccc(-c2nc3ccccc3o2)cc1NC(=S)NC(=O)c1cc2ccccc2o1,EC50,[5],5.17 µM (active)
same,EC50,[6],4.68 µM (active)
COc1cccc(/C=C2/SC(=O)N(CC(=O)N3CCc4ccccc4C3)C2=O)c1OCC(=O)O,IC50,Leucine aminopeptidase,16.2 µM (active)
CC(=O)Nc1sc(C)c(C)c1C(=O)OCC(=O)Nc1cc(S(=O)(=O)N2CCCCC2)ccc1Cl,EC50,[5],43.1 µM (active)
same,EC50,[6],133 µM (active)
O=C(COC(=O)c1c2c(nc3ccccc13)/C(=C/c1cccc([N+](=O)[O-])c1)CCC2)NC1CCS(=O)(=O)C1 (stereo not given),IC50,H9c2,11.1 µM (active)
CC1=C(C(=O)Nc2ccc([N+](=O)[O-])cc2)C(c2cccc(C(F)(F)F)c2)N=C(S)N1c1ccccc1 (stereo not given),EC50,[13],7.84 µM (active)
same,EC50,Streptokinase A,18.8 µM (active)
same,EC50,[11],2.05 µM (active)
same,EC50,[5],9.06 µM (active)
same,EC50,[12],> 60 µM (inconclusive)
same,EC50,[6],11.5 µM (active)
same,EC50,Streptococcus,20.5 µM (active)
Cc1cccc(Nc2nc(N)nc(CC(=O)CSc3ccc(Cl)cc3)n2)c1,EC50,[5],56 µM (active)
same,EC50,[6],35.6 µM (active)
Cc1ccc(N(CC(N)=O)C2SC(=O)N(Cc3ccccc3)C2=O)cc1 (stereo not given),IC50,[3],> 66 µM (inactive)
same,IC50,[4],> 66 µM (inactive)
Cn1nc(C(F)(F)F)c(C(=O)Nc2cccc(C(F)(F)F)c2)c1SCc1ccc(Cl)cc1,EC50,[5],22.4 µM (active)
same,EC50,[6],26.7 µM (active)
same,AC50,[10],6.27 µM (active)
Cc1ccc([N+](=O)[O-])cc1NC(=S)NC(=O)c1cccnc1,IC50,[3],> 66 µM (inactive)
same,IC50,[4],> 66 µM (inactive)
CCCN1C(=O)c2cc(C(=O)Nc3cccc(C(C)=O)c3)ccc2C1Nc1cccc(C(C)=O)c1 (stereo not given),IC50,H9c2,> 79 µM (inactive)
Sc1ncnc2c1ncn2C1CCCO1 (stereo not given),IC50,[3],> 66 µM (inactive)
same,IC50,[4],> 66 µM (inactive)
O=C(NCCCCNC(=O)c1nc[nH]c1C(=O)Nc1cccc(Cl)c1)c1nc[nH]c1C(=O)Nc1cccc(Cl)c1,IC50,H9c2,> 79 µM (inactive)
